Active and inactive are the calls of the source. The calls are words filed in the database; no cut-off is given here.
Assays:
A549 = assay: Antiproliferative activity against human A549 cells after 72 hrs by sulforhodamine B assay; assay type: functional, cell-based; conditions: A549, 72 h
MCF7 = assay: Antiproliferative activity against human MCF7 cells after 72 hrs by sulforhodamine B assay; assay type: functional, cell-based; conditions: MCF7, 72 h
MDA-MB-231 [1] = assay: Antiproliferative activity against human MDA-MB-231 cells after 72 hrs by sulforhodamine B assay; assay type: functional, cell-based; conditions: MDA-MB-231, 72 h
KB = assay: Antiproliferative activity against human KB cells after 72 hrs by sulforhodamine B assay; assay type: functional, cell-based
[2] = Antiproliferative activity against human KB-VIN cells after 72 hrs by sulforhodamine B assay; assay type: functional, cell-based; conditions: KBVIN
MDA-MB-231 [3] = assay: Induction of autophagy in human MDA-MB-231 cells transfected with mRFP-eGFP-LC3 assessed as increase in LC3-II expression at 1.8 uM measured after 72 hrs by Western blot analysis; assay type: functional, cell-based
MDA-MB-231 [4] = assay: Induction of apoptosis in human MDA-MB-231 cells assessed as activation of caspase-3 cleavage at 1.8 uM measured after 72 hrs by Western blot analysis; assay type: functional, cell-based
MDA-MB-231 [5] = assay: Down regulation of TrxR1 expression in human MDA-MB-231 cells at 1.8 uM measured after 72 hrs by Western blot analysis; assay type: functional, cell-based
MDA-MB-231 [6] = assay: Induction of autophagy in human MDA-MB-231 cells transfected with mRFP-eGFP-LC3 assessed as accumulation of autophagosomes by measuring increase in […] fluorescence at 1.8 uM measured after 24 hrs by confocal laser scanning microscopy; assay type: functional, cell-based
[7] = Inhibition of TrxR in human MDA-MB-231 cells measured after 72 hrs by colorimetric method; assay type: cell-based
MDA-MB-231 [8] = assay: Induction of reactive oxygen species generation in human MDA-MB-231 cells measured after 24 hrs by DCFH-DA probe based flow cytometry; assay type: functional, cell-based
MDA-MB-231 [9] = assay: Induction of apoptosis in human MDA-MB-231 cells at 1.8 uM measured after 72 hrs by APC-Annexin V/7-AAD staining based flow cytometry relative to control; assay type: functional
MDA-MB-231 [10] = assay: Induction of autophagy in human MDA-MB-231 cells transfected with mRFP-eGFP-LC3 assessed as accumulation of autolysosome by measuring increase in red fluorescence at 1.8 uM measured after 24 hrs by confocal laser scanning microscopy; assay type: functional, cell-based
MDA-MB-231 [11] = assay: Antitumor activity against human MDA-MB-231 cells xenografted in BALB/c nude mouse assessed as reduction in tumor weight at 10 mg/kg, ip measured at 2 days interval for 21 days relative to control; assay type: functional; set-up: scale not given: the % may be the effect or the level left; conditions: time 2 day
Rattus norvegicus = species: Rattus norvegicus; assay: Inhibition of purified rat liver TrxR measured after 75 mins in presence of NADPH by DTNB based assay
[12] = Selectivity ratio of IC50 for human A549 cells to IC50 for human MDA-MB-231 cells; assay type: functional
MDA-MB-231 [13] = assay: Down regulation of TrxR1 expression in human MDA-MB-231 cells measured after 72 hrs by Western blot analysis; assay type: functional, cell-based
[14] = Acute toxicity in ICR mouse assessed as survival at 488.3 mg/kg, ip administered as single dose measured for 14 days; assay type: organism-based; conditions: in vivo, time 14 day, read-out: Activity
[15] = Acute toxicity in ICR mouse assessed as survival at 200 mg/kg, ip administered as single dose measured for 14 days; assay type: organism-based; conditions: in vivo, time 14 day, read-out: Activity
[16] = Acute toxicity in ICR mouse assessed as abnormality in drinking at 200 mg/kg, ip administered as single dose measured for 14 days; assay type: organism-based; conditions: in vivo, 336 h, time 14 day
MDA-MB-231 [17] = assay: Induction of autophagy in human MDA-MB-231 cells transfected with mRFP-eGFP-LC3 assessed as increase in LC3-II expression at 0.2 to 1.8 uM measured after 72 hrs by Western blot analysis; assay type: functional, cell-based; conditions: dose 0.2-1.8 µM
MDA-MB-231 [18] = assay: Induction of apoptosis in human MDA-MB-231 cells at 0.6 uM measured after 72 hrs by APC-Annexin V/7-AAD staining based flow cytometry relative to control; assay type: functional
[19] = Acute toxicity in ICR mouse assessed as death at 200 mg/kg, ip administered as single dose measured for 14 days; assay type: organism-based; conditions: in vivo, 336 h, time 14 day
MDA-MB-231 [20] = assay: Induction of autophagy in human MDA-MB-231 cells transfected with mRFP-eGFP-LC3 assessed as decrease in p62 expression at 0.2 to 1.8 uM measured after 72 hrs by Western blot analysis; assay type: functional, cell-based; conditions: dose 0.2-1.8 µM
[21] = Acute toxicity in ICR mouse assessed as survival at 250 mg/kg, ip administered as single dose measured for 14 days; assay type: organism-based; conditions: in vivo, time 14 day, read-out: Activity
MDA-MB-231 [22] = assay: Induction of autophagy in human MDA-MB-231 cells transfected with mRFP-eGFP-LC3 assessed as accumulation of autophagosomes by measuring increase in […] fluorescence measured after 24 hrs by confocal laser scanning microscopy; assay type: functional, cell-based
[23] = Acute toxicity in ICR mouse assessed as survival at 312.5 mg/kg, ip administered as single dose measured for 14 days; assay type: organism-based; conditions: in vivo, time 14 day, read-out: Activity
MDA-MB-231 [24] = assay: Induction of apoptosis in human MDA-MB-231 cells assessed as activation of caspase-3 cleavage at 0.2 to 1.8 uM measured after 72 hrs by Western blot analysis; assay type: functional, cell-based; conditions: dose 0.2-1.8 µM
MDA-MB-231 [25] = assay: Induction of apoptosis in human MDA-MB-231 cells at 0.2 uM measured after 72 hrs by APC-Annexin V/7-AAD staining based flow cytometry relative to control; assay type: functional
MDA-MB-231 [26] = assay: Antitumor activity against human MDA-MB-231 cells xenografted in BALB/c nude mouse assessed as reduction in tumor volume at 10 to 25 mg/kg, ip measured at 2 days interval for 21 days; assay type: functional, organism-based; conditions: dose 10-25 mg/kg, time 2.0 day
MDA-MB-231 [27] = assay: Antitumor activity against human MDA-MB-231 cells xenografted in BALB/c nude mouse assessed as reduction in tumor weight at 25 mg/kg, ip measured at 2 days interval for 21 days relative to control; assay type: functional; set-up: scale not given: the % may be the effect or the level left; conditions: time 2 day
MDA-MB-231 [28] = assay: Induction of autophagy in human MDA-MB-231 cells transfected with mRFP-eGFP-LC3 assessed as decrease in LC3-I expression at 0.2 to 1.8 uM measured after 72 hrs by Western blot analysis; assay type: functional, cell-based; conditions: dose 0.2-1.8 µM
MDA-MB-231 [29] = assay: Induction of apoptosis in human MDA-MB-231 cells assessed as reduction in Bcl-XL expression measured after 72 hrs by Western blot analysis; assay type: functional, cell-based
[30] = Acute toxicity in ICR mouse assessed as abnormality in eating at 200 mg/kg, ip administered as single dose measured for 14 days; assay type: organism-based; conditions: in vivo, 336 h, time 14 day
MDA-MB-231 [31] = assay: Induction of autophagy in human MDA-MB-231 cells transfected with mRFP-eGFP-LC3 assessed as accumulation of autolysosome by measuring increase in red fluorescence measured after 24 hrs by confocal laser scanning microscopy; assay type: functional, cell-based
MDA-MB-231 [32] = assay: Induction of apoptosis in human MDA-MB-231 cells assessed as reduction in Bcl-2 expression measured after 72 hrs by Western blot analysis; assay type: functional, cell-based
[33] = Acute toxicity in ip dosed ICR mouse administered as single dose measured for 14 days; assay type: organism-based; conditions: in vivo, time 14 day
[34] = Acute toxicity in ICR mouse assessed as change in body weight at 200 mg/kg, ip administered as single dose measured for 14 days; assay type: organism-based; conditions: in vivo, 336 h, time 14 day
[35] = Acute toxicity in ICR mouse assessed as survival at 390.6 mg/kg, ip administered as single dose measured for 14 days; assay type: organism-based; conditions: in vivo, time 14 day, read-out: Activity

Structure (SMILES): COc1cc(/C=C2\CN(S(=O)(=O)c3ccccc3)C=CC2=O)cc(OC)c1OC
- IC50 (A549): 22400 nM
- IC50 (MCF7): > 25000 nM
- IC50 (MDA-MB-231 [1]): 23300 nM

Structure (SMILES): COc1cc(/C=C2\CCC=CC2=O)cc(OC)c1
- IC50 (A549): 4740 nM
- IC50 (MCF7): 4620 nM
- IC50 (KB): 3630 nM
- IC50 [2]: 4870 nM
- IC50 (MDA-MB-231 [1]): 600 nM

Structure (SMILES): COc1ccc(/C=C2\CCC=CC2=O)cc1OC
- IC50 (A549): 4680 nM
- IC50 (MCF7): 5230 nM
- IC50 (KB): 900 nM
- IC50 [2]: 5380 nM
- IC50 (MDA-MB-231 [1]): 640 nM

Structure (SMILES): COc1cc(/C=C2\CN(S(C)(=O)=O)C=CC2=O)cc(OC)c1OC
- IC50 (A549): 18700 nM
- IC50 (MCF7): 17600 nM
- IC50 (MDA-MB-231 [1]): 15900 nM

Structure (SMILES): COc1cc(/C=C/C(=O)N2CCC=CC2=O)cc(OC)c1OC [PIPLARTINE]
- IC50 (A549): 3200 nM
- IC50 (MCF7): 4400 nM
- Activity (MDA-MB-231 [3]): Active
- Activity (MDA-MB-231 [4]): Active
- Activity (MDA-MB-231 [5]): Active
- IC50 (KB): 1670 nM
- Activity (MDA-MB-231 [6]): Active
- IC50 [7]: 1520 nM
- IC50 [2]: 7850 nM
- Activity (MDA-MB-231 [8]): Active
- Activity (MDA-MB-231 [9]): Active
- IC50 (MDA-MB-231 [1]): 3720 nM
- Activity (MDA-MB-231 [10]): Active
- Activity (MDA-MB-231 [11]): 44.9%
- inhibition (Rattus norvegicus): Active

Structure (SMILES): O=C1C=CCC/C1=C\c1ccc2c(c1)OCO2
- IC50 (A549): 1520 nM
- IC50 (MCF7): 2280 nM
- IC50 (KB): 1660 nM
- IC50 [2]: 2200 nM
- IC50 (MDA-MB-231 [1]): 1650 nM

Structure (SMILES): COc1cc(/C=C2\CNC=CC2=O)cc(OC)c1OC
- IC50 (A549): > 25000 nM
- IC50 (MCF7): > 25000 nM
- IC50 (MDA-MB-231 [1]): > 25000 nM

Structure (SMILES): COc1cc(/C=C2\CCC=CC2=O)cc(OC)c1O
- IC50 (A549): 1540 nM
- IC50 (MCF7): 2180 nM
- IC50 (KB): 1520 nM
- IC50 [2]: 3100 nM
- IC50 (MDA-MB-231 [1]): 1610 nM

Structure (SMILES): COc1cccc(/C=C2\CCC=CC2=O)c1OC
- IC50 (A549): 5090 nM
- IC50 (MCF7): 4710 nM
- IC50 (KB): 3850 nM
- IC50 [2]: 5220 nM
- IC50 (MDA-MB-231 [1]): 610 nM
- Ratio IC50 [12]: 8

Structure (SMILES): COc1cccc(/C=C2\CCC=CC2=O)c1
- IC50 (A549): 1480 nM
- IC50 (MCF7): 2030 nM
- IC50 (KB): 1550 nM
- IC50 [2]: 2570 nM
- IC50 (MDA-MB-231 [1]): 1060 nM

Structure (SMILES): O=C1C=CCC/C1=C\c1ccccc1OC(F)(F)F
- IC50 (MDA-MB-231 [1]): 1010 nM

Structure (SMILES): O=C1C=CCC/C1=C\c1ccc(-c2ccccc2)cc1
- IC50 (A549): 3670 nM
- IC50 (MCF7): 4970 nM
- IC50 (KB): 2320 nM
- IC50 [2]: 4840 nM
- IC50 (MDA-MB-231 [1]): 680 nM

Structure (SMILES): O=C1C=CCC/C1=C\c1ccc(OC(F)(F)F)cc1
- Activity (MDA-MB-231 [13]): Dose-dependent effect
- survival at 336 h [14]: 10%
- IC50 (A549): 440 nM
- survival at 336 h [15]: 100%
- Activity [16]: Non-Toxic
- Activity (MDA-MB-231 [17]): Active
- Activity (MDA-MB-231 [18]): 45.6%
- Activity [19]: Non-Toxic
- IC50 (MCF7): 1040 nM
- Activity (MDA-MB-231 [20]): Active
- survival at 336 h [21]: 90%
- Activity (MDA-MB-231 [22]): Dose-dependent effect
- survival at 336 h [23]: 70%
- Activity (MDA-MB-231 [24]): Active
- Activity (MDA-MB-231 [25]): 20.7%
- Activity (MDA-MB-231 [26]): Active
- Activity (MDA-MB-231 [27]): 63.3%
- IC50 (KB): 530 nM
- Activity (MDA-MB-231 [28]): Active
- IC50 [7]: 120 nM
- Activity (MDA-MB-231 [29]): Dose-dependent effect
- Activity [30]: Non-Toxic
- Activity (MDA-MB-231 [31]): Dose-dependent effect
- IC50 [2]: 840 nM
- Activity (MDA-MB-231 [8]): Active
- Activity (MDA-MB-231 [32]): Dose-dependent effect
- Activity (MDA-MB-231 [9]): 56.8%
- IC50 (MDA-MB-231 [1]): 590 nM
- LD50 at 336 h [33]: 366 mg/kg
- Activity [34]: Non-Toxic
- inhibition (Rattus norvegicus): Active
- survival at 336 h [35]: 30%

Structure (SMILES): COc1ccc(/C=C2\CCC=CC2=O)c(C)c1
- IC50 (A549): 1550 nM
- IC50 (MCF7): 1840 nM
- IC50 (KB): 1310 nM
- IC50 [7]: 460 nM
- IC50 [2]: 1590 nM
- Activity (MDA-MB-231 [8]): Active
- IC50 (MDA-MB-231 [1]): 1070 nM
